The values that follow come from article PMC2801581 (Journal of medicinal chemistry, 2009).

The target in assay [1] is T1, LYP (Homo sapiens, UniProt Q9Y2R2).
T1 sequence (Q9Y2R2 2-309): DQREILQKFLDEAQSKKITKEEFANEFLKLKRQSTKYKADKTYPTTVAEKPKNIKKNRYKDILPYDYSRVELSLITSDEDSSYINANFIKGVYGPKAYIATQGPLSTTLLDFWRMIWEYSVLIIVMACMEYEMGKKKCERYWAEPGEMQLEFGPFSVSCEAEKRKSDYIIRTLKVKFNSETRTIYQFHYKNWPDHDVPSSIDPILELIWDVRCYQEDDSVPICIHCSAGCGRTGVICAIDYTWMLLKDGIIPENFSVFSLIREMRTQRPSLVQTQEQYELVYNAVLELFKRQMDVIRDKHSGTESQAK
The experiment in a line: LYP inhibition assay with fluorogenic substrates. It counts as biochemical. The note with it: for IC50: pH 6.5.

The next assay has as its target T2, PTP-PEST (Homo sapiens, UniProt Q05209).
T2 sequence (Q05209 2-323): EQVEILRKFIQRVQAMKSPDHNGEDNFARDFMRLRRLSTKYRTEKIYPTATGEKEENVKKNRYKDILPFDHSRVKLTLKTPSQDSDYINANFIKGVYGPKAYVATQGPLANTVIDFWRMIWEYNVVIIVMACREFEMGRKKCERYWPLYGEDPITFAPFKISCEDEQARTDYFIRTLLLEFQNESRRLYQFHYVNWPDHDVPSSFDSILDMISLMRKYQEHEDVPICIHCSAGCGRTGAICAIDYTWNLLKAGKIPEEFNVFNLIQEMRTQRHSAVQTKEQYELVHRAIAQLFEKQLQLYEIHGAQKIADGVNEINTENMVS
The experiment in a line: PTP-PEST inhibition assay with fluorogenic substrates. The following applies: pH 6.5. The class given is biochemical.

A further assay concerns the target T3, HePTP (Homo sapiens, UniProt P35236).
T3 sequence (P35236 65-360): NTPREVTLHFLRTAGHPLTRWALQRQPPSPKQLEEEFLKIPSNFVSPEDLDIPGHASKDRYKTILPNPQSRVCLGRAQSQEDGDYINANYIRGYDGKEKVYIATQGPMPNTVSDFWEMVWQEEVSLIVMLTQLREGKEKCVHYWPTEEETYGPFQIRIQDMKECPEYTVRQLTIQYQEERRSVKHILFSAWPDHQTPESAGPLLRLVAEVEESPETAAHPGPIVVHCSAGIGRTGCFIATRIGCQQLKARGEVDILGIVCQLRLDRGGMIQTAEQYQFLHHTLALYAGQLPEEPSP
Briefly: HePTP counterscreen. It counts as biochemical. The following applies: read-out: IC50 HePTP (DiFMUP). (In general: Counterscreens check selectivity or assay interference.)

For assay [2], the target named is T4, CD45 (Homo sapiens, UniProt P08575).
T4 sequence (P08575 653-912 limits assumed): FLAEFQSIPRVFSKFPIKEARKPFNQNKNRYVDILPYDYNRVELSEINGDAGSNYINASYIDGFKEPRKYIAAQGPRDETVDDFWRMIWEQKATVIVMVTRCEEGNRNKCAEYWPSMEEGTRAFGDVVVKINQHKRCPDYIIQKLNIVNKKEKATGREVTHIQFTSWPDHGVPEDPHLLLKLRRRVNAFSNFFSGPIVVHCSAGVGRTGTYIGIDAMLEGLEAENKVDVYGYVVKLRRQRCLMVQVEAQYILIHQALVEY
Briefly: CD45 counterscreen. It counts as biochemical. The following applies: read-out: IC50 CD45 (DiFMUP).

For assay [3], the system named is LYP. The experiment in a line: Intracellular LYP inhibition in JTAg cells, anti-pLck. The class given is cell-based, human.
For assay [4], the target named is T5, CD45 (Homo sapiens, UniProt P08575).
T5 sequence (P08575 26-1306): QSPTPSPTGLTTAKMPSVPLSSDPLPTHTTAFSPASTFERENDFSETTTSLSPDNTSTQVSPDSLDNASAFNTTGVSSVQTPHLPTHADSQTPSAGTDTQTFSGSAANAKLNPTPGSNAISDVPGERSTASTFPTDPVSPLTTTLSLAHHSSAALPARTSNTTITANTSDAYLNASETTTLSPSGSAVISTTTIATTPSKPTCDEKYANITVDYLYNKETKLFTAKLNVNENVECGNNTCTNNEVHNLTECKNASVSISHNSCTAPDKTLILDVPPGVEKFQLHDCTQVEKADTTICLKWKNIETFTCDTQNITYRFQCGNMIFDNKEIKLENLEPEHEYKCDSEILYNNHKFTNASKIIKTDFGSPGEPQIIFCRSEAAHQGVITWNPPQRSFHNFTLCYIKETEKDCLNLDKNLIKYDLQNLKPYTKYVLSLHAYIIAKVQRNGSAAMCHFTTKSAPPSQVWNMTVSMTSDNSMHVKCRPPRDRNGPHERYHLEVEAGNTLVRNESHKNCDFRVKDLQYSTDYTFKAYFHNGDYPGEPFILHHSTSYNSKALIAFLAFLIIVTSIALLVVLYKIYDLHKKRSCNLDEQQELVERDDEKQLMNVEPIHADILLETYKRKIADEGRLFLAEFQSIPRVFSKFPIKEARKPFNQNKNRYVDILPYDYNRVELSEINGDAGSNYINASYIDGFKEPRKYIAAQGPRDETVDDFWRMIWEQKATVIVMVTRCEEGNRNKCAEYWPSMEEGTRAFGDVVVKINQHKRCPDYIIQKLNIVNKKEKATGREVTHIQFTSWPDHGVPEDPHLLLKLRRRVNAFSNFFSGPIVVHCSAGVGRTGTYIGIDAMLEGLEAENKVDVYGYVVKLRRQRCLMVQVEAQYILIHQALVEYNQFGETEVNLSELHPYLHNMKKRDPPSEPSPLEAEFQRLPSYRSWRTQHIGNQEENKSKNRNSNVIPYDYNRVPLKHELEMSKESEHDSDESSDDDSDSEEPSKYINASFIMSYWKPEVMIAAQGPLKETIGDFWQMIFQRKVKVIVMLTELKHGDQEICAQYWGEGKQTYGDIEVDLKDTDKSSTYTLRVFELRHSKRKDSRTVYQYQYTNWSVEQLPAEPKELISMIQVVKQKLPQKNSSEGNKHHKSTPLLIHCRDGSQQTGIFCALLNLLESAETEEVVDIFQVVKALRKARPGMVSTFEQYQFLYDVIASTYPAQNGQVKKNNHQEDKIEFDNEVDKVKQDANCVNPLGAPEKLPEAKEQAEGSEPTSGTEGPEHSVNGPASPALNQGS
The experiment in a line: Intracellular CD45 inhibition in JTAg cells, anti-pLck. The class given is cell-based.

Assay [5] relates to LYP.
Assay [6] concerns CD45.

Read-outs that look alike come from different tables or passages of the source.

The term IC50 denotes the midpoint of a concentration-inhibition curve. As for `[Cl][Au][PH](c1ccccc1)(c1ccccc1)c1ccccn1` [Compound 17, Diphenyl-2-pyridylphosphine-Au(I)-Cl], the “LYP versus PTP-PEST inhibition in comparative library screen” value at LYP [1] is “more potent inhibitors of LYP than PTP-PEST regardless of the substrate used”. Also, the “selectivity for LYP over PTP-PEST in dose-response screens” value at LYP [1] is “selective for LYP over the ~ 70% identical PTP-PEST”. Also, the IC50 on LYP [1] (read-out: IC50 LYP (DiFMUP)) is 5 ± 0.2 µM; on LYP [1] (read-out: IC50 LYP (peptide 1)), 1.5 ± 0.3 µM; at PTP-PEST (read-out: IC50 PEST (DiFMUP)), 76 ± 3 µM; at PTP-PEST (read-out: IC50 PEST (peptide 1)) it was 43 ± 3 µM; at HePTP, 35 ± 2 µM; at CD45 [2] it was greater than 150 µM. For the same compound, the “phosphorylation of Lck at Y394 (LYP activity in cells)” value in the assay with LYP [3] was “increase in phosphorylation at Y394”. On CD45 [4], the “phosphorylation of Lck at Y505 (CD45 activity in cells)” value is given as “no change in phosphorylation levels at position Y505”. Further, in the assay with LYP [5], the “LYP activity in primary mouse thymocytes (pLck Tyr394)” value was “appears to inhibit LYP activity”. The “CD45 activity in primary mouse thymocytes (pLck Tyr505)” value in the assay on CD45 [6] was “not CD45 activity”.

Take `CCP(CC)CC.[Au+].[Cl-]` [Compound 39]: the “selectivity for LYP over PTP-PEST in dose-response screens” value on LYP [1] (in vitro, Table 1) is “selective for LYP over the ~ 70% identical PTP-PEST”. Moreover, at LYP [1] (nominal 5 µM, DiFMUP and peptide 1), the “LYP versus PTP-PEST inhibition in comparative library screen” value is “appears LYP selective with peptide 1, but not with DiFMUP”. The IC50 was 33 ± 3 µM at LYP [1] (read-out: IC50 LYP (DiFMUP), substrate DiFMUP 1.5 µM); 26 ± 2 µM at LYP [1] (read-out: IC50 LYP (peptide 1), substrate peptide 1 10 µM); greater than 150 µM at PTP-PEST (read-out: IC50 PEST (DiFMUP), substrate DiFMUP 1.5 µM); 93 ± 9 µM on PTP-PEST (read-out: IC50 PEST (peptide 1), substrate peptide 1 10 µM); 120 ± 5 µM on HePTP (substrate DiFMUP); 33 ± 3 µM on CD45 [2] (substrate DiFMUP). Besides, the “selectivity for LYP over PTP-PEST” value at LYP [1] (with peptide 1 as substrate) is on record as roughly 4 fold. For the same compound, in the assay on LYP [3] (JTAg cells, TCR stimulated (C305, 2 min), 50 µM of 17 and 34, 25 µM of 39, 1 h), the “phosphorylation of Lck at Y394 (LYP activity in cells)” value is “increase in phosphorylation at Y394”. Further, the “phosphorylation of Lck at Y505 (CD45 activity in cells)” value at CD45 [4] (JTAg cells, 50 µM of 17 and 34, 25 µM of 39, 1 h) was “increase in this band”.
